Measurements taken from US20180160679A1, “PROCESS FOR TREATING PERENNIAL PLANT WOOD DISEASES” (priority 2015, published 2018).

Tests used:
[1] = test system: Phaeocremonium aleophilum; assay: Mycelial growth on malt-agar medium with fungicide (Example 6); assay type: cell-based
Experimental: (§1) The culture medium is a malt-agar medium (15 g of malt and 20 g of agar per litre of deionized water, sterilized at 120° C. for 20 minutes).
(§2) The medium containing the fungicides is prepared by diluting the formulation under investigation in deionized water, which is added to the culture medium. The mixture is then homogenized and distributed in Petri dishes with a diameter of 90 mm.
(§3) Discs with a diameter of 6 mm, cut out with a punch, are placed in each dish in sterile conditions. Three repetitions are carried out for each test. The Petri dishes are incubated at 25° C. for a time necessary for the fungus to develop as far as 1 or 2 cm from the edges of a Petri dish.
(§4) The percentage mycelial growth is evaluated relative to a control placed under the same conditions for each concentration of fungicide, by the following equation: […]
(§5) The value of the concentration of the active ingredients required for inhibiting mycelial growth at 50% (IC50) or at 90% (IC90) is calculated from the regression straight line of the percentage efficacy as a function of the logarithm of the concentration of the fungicide.
(§6) The value of the concentration of the fungicide that is lethal for the fungus is obtained according to the following methodology; the mycelial implants that have not developed on the culture medium with fungicide are transferred to a malt-agar culture medium, without fungicide. The Petri dishes are then incubated at ambient temperature. Failure of the mycelial implant to take is noted. […]
(§7) The efficacy of tetraconazole, cyproconazole alone or in combination with chlorothalonil or metiram zinc on mycelial growth was evaluated under the same conditions as in Example 4.
(§8) The efficacy of tebuconazole in combination with another […] antifungal, metiram zinc, was also evaluated.

[2] = test system: Phaeomoniella chlamydospora; assay: as above; assay type: cell-based
Experimental: as §1, §2, §3, §4, §5, §6, §7, §8

[3] = test system: Formitiporia mediterranea (F2010-1); assay: Mycelial growth on malt-agar medium with fungicide; assay type: cell-based, Fomitoporia mediterranea; settings: for concentration at which mycelial growth is inhibited completely: Example 6; for fungicide (lethal) activity: at the concentrations tested
Experimental: (§9) Formulation 3 was used in this experiment and was compared with two formulations 5 and 6, is devoid of one of the two active ingredients but of identical composition (the quantity of active ingredient omitted is replaced with water).
(§10) The fungi on which formulations 3, 5 and 6 were tested are Diplodia seriata (F98-01), Neofusicoccum parvum (NpSV), Eutypa lata (St309) and Formitiporia mediterranea (F2010-1).
as §1, §2
(§11) The final concentrations of each active ingredient in the medium are as follows: 0.0005, 0.005, 0.05, 0.5, 5, 50 and 500 mg/L.
as §3, §4, §5
(§12) The value of the concentration of the fungicide that is lethal for the fungus is obtained according to the following methodology; the mycelial implants that have not developed on the culture medium with fungicide are transferred to a malt-agar culture medium, without fungicide. The Petri dishes are then incubated at ambient temperature. Failure of the mycelial implant to take is noted.
(§13) The interactions between the fungicides in composition 3 are investigated by Wadley's method. IC50 and IC90 can be determined for each fungicide and for the fungicide combination from the curves plotted for each active ingredient used alone or for the combination.
(§14) IC90 and the theoretical IC90 for the combination is then calculated using the following equation:
(§15) The type and the level of the interaction F are then calculated by dividing the theoretical IC value by the experimental IC observed for the combination of fungicides (F=theoretical IC/experimental IC).
(§16) The interactions are defined thus: • Additivity: F=1, • Synergy: F>1, • Antagonism: F<1.
as §7, §8

[4] = test system: Neofusicoccum parvum (NpSV); assay: Mycelial growth on malt-agar medium with fungicide; assay type: cell-based; settings: for concentration at which mycelial growth is inhibited completely / activity on mycelial growth: Example 6
Experimental: as §9, §10, §1, §2, §11, §3, §4, §5, §12, §13, §14, §15, §16, §7, §8

[5] = test system: Diplodia seriata (F98-01); assay: Mycelial growth on malt-agar medium with fungicide; assay type: cell-based; settings: for concentration at which mycelial growth is inhibited completely / activity on mycelial growth: Example 6
Experimental: as §9, §10, §1, §2, §11, §3, §4, §5, §12, §13, §14, §15, §16, §7, §8

Eutypa lata (St309) = assay: Mycelial growth on malt-agar medium with fungicide; assay type: cell-based
Experimental: as §9, §10, §1, §2, §11, §3, §4, §5, §12, §13, §14, §15, §16, §7, §8

Phytophthora cactorum = assay: Growth inhibition by laser nephelometry in 96-well microplates; assay type: cell-based; settings: nephelometry for 60 h
Experimental: (§17) For multicellular organisms such as fungi, the nephelometry method is used on sporulating strains (Joubert et al., Laser nephelometry applied in an automated microplate system to study filamentous fungus growth, Biotechniques 48: 399-404, 2010).
(§18) The strains are multiplied on suitable agar media in an oven at 20° C., for 8 days before their use, so as to be in their exponential growth phase. The fungal suspension is prepared extemporaneously at a concentration of […] for Pc and […] for Ch.
(§19) 100 μl of the suspension is used for the tests.
(§20) The tests are carried out in 96-well microplates. Doses of 0 ppm, 0.1 ppm, 0.3 ppm, 1 ppm, 3 ppm, 10 ppm, 30 ppm, 100 ppm, 300 ppm, 1000 ppm and 3000 ppm (final concentration of the substance) will be tested per product.
(§21) Three technical repetitions are carried out per modality (target species/formulation).
(§22) Controls are added per target pathogenic agent: one positive growth control and the products alone at the highest doses.
(§23) Nephelometry measurements (RNU) are carried out for 60 h, every 30 minutes and the growth values are measured to study the growth inhibition effect relative to the fungal controls.

[6] = test system: Neonectria galligena (Cylindrocarpon heteronema); assay: as above; assay type: cell-based; settings: for IC50 / IC90: growth, nephelometry for 60 h
Experimental: as §17, §18, §19, §20, §21, §22, §23

[7] = test system: Phaeoacremonium aleophilum (LR 23); assay: Germination of the spores on malt-agar medium with fungicide; assay type: cell-based; settings: for inhibition of germination of the spores: at the concentrations tested (0.0005 to 500 mg/L)
Experimental: (§24) Formulation 3 was used in this experiment and was compared with two formulations 5 and 6, devoid of one of the two active ingredients but of identical composition (the quantity of active ingredient omitted is replaced with water).
(§25) The fungi on which formulations 3, 5 and 6 were tested are Phaemoniella chlamydospora (81pep), Phaeoacremonium aleophilum (LR 23), Diplodia seriata (F98-01), Neofusicoccum parvum (NpSV) and Eutypa lata.
(§26) The fungi are transferred to a malt-agar medium (15 g of malt and 20 g of agar per litre of deionized water, sterilized at 120° C. for 20 minutes) in a Petri dish for multiplication.
(§27) The conidia of Phaemoniella chlamydospora and Phaeoacremonium aleophilum are obtained from cultures of these fungi. The conidia are obtained by rinsing the colony of fungi with a few millilitres of sterile deionized water.
(§28) The suspension of conidia in deionized water is then adjusted to 100-200 conidia per μl.
as §1, §2, §11
(§29) 100 μl of a previously homogenized suspension of spores is deposited and spread over the surface of the culture medium.
(§30) Two repetitions are carried out for each test.
(§31) The percentage germination of the spores is evaluated relative to a control placed under the same conditions.
(§32) Two Petri dishes are incubated at 25° C. for a time required for the spores of the control dish to have germinated between 90 and 100%.
(§33) For each Petri dish, 200 spores are counted and the percentage of spores germinated is calculated.
(§34) For each concentration of fungicide, the percentage efficacy of the active ingredient is determined by the following equation: […]

[8] = test system: Phaemoniella chlamydospora (81pep); assay: as above; assay type: cell-based; settings: at 0.05 mg/1
Experimental: as §24, §25, §26, §27, §28, §1, §2, §11, §29, §30, §31, §32, §33, §34

[9] = test system: Neofusicoccum parvum (NpSV); assay: as above; assay type: cell-based
Experimental: as §24, §25, §26
The conidia of Neofusicoccum parvum are obtained from pycnidia that have developed on fragments of grapevines shoots.
as §1
The medium containing the fungicides is prepared by diluting the formulation under investigation in deionized water, which is added to the culture medium. […]
(§35) The percentage germination of the spores is evaluated relative to a control placed under the same conditions. […]
as §33, §34

[10] = test system: Diplodia seriata (F98-01); assay: as above; assay type: cell-based; settings: at the concentrations tested (0.0005 to 500 mg/L)
Experimental: as §24, §25, §26
The conidia of Diplodia seriata are obtained from pycnidia that have developed in less than three weeks of culture on the malt-agar medium. The pycnidia are taken from and cultured in sterile water in such a way that they release the conidia.
(§36) The culture medium is a malt-agar medium (15 g of malt and 20 g of agar per litre of deionized water, sterilized at 120° C. for 20 minutes). […]
as §35, §33, §34

Eutypa lata = assay: as above; assay type: cell-based
Experimental: as §24, §25, §26
The ascospores of Eutypa lata are obtained from perithecia situated on vine plants that have died from Eutypiosis. The perithecia are decapitated superficially, isolated one by one and soaked in sterile water for approximately 2 hours. The concentration of ascospores is then adjusted to 100-200 conidia per μl.
as §36, §35, §33, §34

[11] = Example 5, at the concentrations tested

Compound | concentration at which mycelial growth is inhibited completely [1] [mg/L] | concentration at which the substance is fungicidal (lethal dose) [1] [mg/L] | concentration at which mycelial growth is inhibited completely [2] [mg/L] | concentration at which the substance is fungicidal [2] [mg/L] | concentration at which mycelial growth is inhibited completely [3] [mg/L] | fungicide (lethal) activity [3] | concentration at which mycelial growth is inhibited completely [4] [mg/L] | concentration at which mycelial growth is inhibited completely [5] [mg/L] | concentration from which mycelial growth is inhibited completely (Eutypa lata (St309); Example 6) [mg/L] | lethal dose (Eutypa lata (St309); Example 6) [mg/L] | 50% inhibitory concentration (IC50) (Phytophthora cactorum) | 90% inhibitory concentration (IC90) (Phytophthora cactorum) [ppm] | lethal dose [6] [ppm] | IC50 [6] | IC90 [6] | inhibition of germination of the spores [7] | inhibition of germination of the spores [8] | concentration that inhibits germination of the spores (Eutypa lata) [mg/1] | activity on mycelial growth [4] | activity on mycelial growth [5] | other results
FC(F)C(F)(F)OCC(Cn1cncn1)c1ccc(Cl)cc1Cl (centres unmarked) [tetraconazole] | 50 | 100 | 50 | 100 | 10 | fungicidal | 500 | 500 | ≥ 5 | 50 | – | – | – | – | – | – | – | – | – | – | –
N#Cc1c(Cl)c(Cl)c(Cl)c(C#N)c1Cl [chlorothalonil] | 500 | – | 500 | – | – | does not display fungicide activity | – | – | – | – | below 10 ppm | 1000 | ≥ 300 | approximately 100 ppm | around 250 ppm | does not inhibit germination of the spores | does not inhibit germination of the spores | 5 | moderate activity | low activity | concentration from which germination of the spores is inhibited [9]: ≥ 5 mg/L; inhibition of germination of the spores [10]: does not inhibit germination of the spores; concentration from which mycelial development is strongly inhibited ([3]; Example 5): ≥ 5 mg/L; concentration at which mycelial development is strongly inhibited ([4]; Example 5): 500 mg/L; fungicide (lethal) activity [4, 11]: does not display fungicide activity; concentration from which mycelial development is strongly inhibited ([5]; Example 5): ≥ 500 mg/L; fungicide (lethal) activity [5, 11]: does not display fungicide activity; concentration from which mycelial development is strongly inhibited (Eutypa lata (St309); Example 5): ≥ 50 mg/L; fungicide (lethal) activity (Eutypa lata (St309); Example 5, at the concentrations tested (0.0005 to 500 mg/L)): does not display fungicide activity; activity on mycelial growth (Eutypa lata (St309); Example 6): do not inhibit the mycelial growth of Eutypa lata completely; activity on mycelial growth (Eutypa lata (St309); Example 6, listed as Chlorothalonil): low activity
CC(C)(C)C(O)(CCc1ccc(Cl)cc1)Cn1cncn1 (centres unmarked) [tebuconazole] | 50 | 100 | 50 | 100 | – | None of the concentrations tested is lethal | – | – | – | – | around 200 ppm | < 1000 | 1000 | around 230 ppm | around 800 ppm | does not prevent germination of the spores | inhibit germination of the spores completely | 50 | – | – | concentration from which elongation of the spores is inhibited [7]: ≥ 5 mg/L; inhibition of germination of the spores ([9]; at the concentration tested): does not inhibit germination of the spores; concentration from which mycelial growth is inhibited completely ([3]; Example 5): ≥ 0.5 mg/L; IC50 ([3]; Example 5, mycelial growth, unit not given (concentrations tested in mg/L)): 3 ng/mL; concentration from which mycelial growth is inhibited completely ([4]; Example 5): ≥ 0.5 mg/L; lethal concentration ([4]; Example 5): 500 mg/L; IC50 ([4]; Neofusicoccum parvum, Example 5, mycelial growth, unit not given (concentrations tested in mg/L)): 13 ng/mL; IC50 ([5]; Diplodia seriata, Example 5, mycelial growth, unit not given (concentrations tested in mg/L)): 6 ng/mL; concentration from which mycelial growth is inhibited completely ([5]; Example 5): ≥ 50 mg/L; lethal concentration ([5]; Example 5): 500 mg/L; concentration from which mycelial growth is inhibited completely (Eutypa lata (St309); Example 5): ≥ 0.5 mg/L; lethal concentration (Eutypa lata (St309); Example 5, implants transferred to medium without fungicide): 500 mg/L
CC(C1CC1)C(O)(Cn1cncn1)c1ccc(Cl)cc1 (centres unmarked) [cyproconazole] | 50 | 100 | 50 | 100 | 500 | fungicidal | 500 | – | ≥ 1 | 10 | – | – | – | – | – | – | – | – | – | low activity | –
metiram zinc | 100 | – | 100 | – | 500 | fungicidal | – | 500 | – | – | – | – | – | – | – | – | – | – | moderate activity | – | activity on mycelial growth (Eutypa lata (St309); Example 6): low activity; activity on mycelial growth (Eutypa lata (St309); Example 6, listed as Metiram zinc): do not inhibit the mycelial growth of Eutypa lata completely
